# Laboratory results taken from patent EP0355842A2, “External preparation” (Sansho Seiyaku Co., Ltd., priority 1988, dated 1990).
# Tested on: B16 cells
# Test: Melanin-production test of B16 cells
# Type: cell-based, mouse
# Details: evaluated concentration 80 µM; culture for 5 days
# Protocol: Experimental Example: Melanin-production test of B16 cells
# B16 cells (4 x 10⁴) derived from mouse melanoma are suspended in Eagle MBM medium containing bovine fetal serum (10 ml) for culture in the presence of 5% CO₂ at 37°C in 25-cm³ Rou bottle. At day 0 and 3, the medium is replaced for a medium containing each of the above substances of 80 µM/l or 60 µM/l to continue the culture for 5 days. The cells washed with phosphate buffer (pH 7.2) containing 0.8 W/V NaCl, were separated using the solution containing trypsin and EDTA, and filtered to recover the cells. The cells recovered on the filter were measured of their reflection luminous intensity (degree of darkness) at 500 nm with a densitometer.
Molecule,Melanin levels,Number of cells
CCC=CCC(=O)OC(CO)CO [2-Monohexenoin],4.3 µg/10^6 cells,2.4 × 10^4 cells
"CCC=CCC=CCCCCC(=O)O [6,9-Dodecadienoic acid]",4.4 µg/10^6 cells,2.5 × 10^4 cells
CCCCCC/C=C\CCCCCCCC(=O)OC[C@H](COP(=O)([O-])OCC[N+](C)(C)C)OC(=O)CCCCCCC/C=C\CCCCCC [L-α-Lecithin dipalmitoleyl],3.9 µg/10^6 cells,2.8 × 10^4 cells
CCCCCCC=CCCCCCCCCC(=O)OCC(COC(=O)CCCCCCCCC=CCCCCCC)OC(=O)CCCCCCCCC=CCCCCCC (stereo not drawn) [Triheptadecenoin],1.0 µg/10^6 cells,2.7 × 10^4 cells
CCCCC=CCCCCCCCCC(=O)OCC(COC(=O)CCCCCCCCC=CCCCC)OC(=O)CCCCCCCCC=CCCCC (stereo not drawn) [Tripentadecenoin],0.2 µg/10^6 cells,2.2 × 10^4 cells
"CCC=CCC=CCCCCCC(=O)O [7,10-Tridecadienoic acid]",3.2 µg/10^6 cells,2.4 × 10^4 cells
CCCCCCC=CCCCCCCCC(=O)O [9-Hexadecenoic acid],0.1 µg/10^6 cells,3.2 × 10^4 cells
CCCC/C=C\CCCCCCCC(=O)OCC(O)CO (stereo not drawn) [1-Monomyristolein],2.2 µg/10^6 cells,2.5 × 10^4 cells
2-Monopentadecenoin,0.1 µg/10^6 cells,2.2 × 10^4 cells
CCC=CCCCCCCCC(=O)O [9-Dodecenoic acid],4.6 µg/10^6 cells,2.7 × 10^4 cells
CC=CC(=O)O [2-Butenoic acid],4.6 µg/10^6 cells,2.7 × 10^4 cells
CCCCC=CCCCCCCCCC(=O)OC [10-Pentadecenoic acid methyl],0.1 µg/10^6 cells,2.7 × 10^4 cells
CCCCCC/C=C/CCCCCCCC(=O)OC[C@H](COP(=O)([O-])OCC[N+](C)(C)C)OC(=O)CCCCCCC/C=C/CCCCCC [L-α-Lecithin dipalmitoelaidoyl],3.8 µg/10^6 cells,2.7 × 10^4 cells
"CCCC=CCC=CCC=CCCCCC(=O)O [6,9,12-Hexadecatrienoic acid]",0.1 µg/10^6 cells,2.5 × 10^4 cells
"CCCCC=CCC=CCCCCCC(=O)O [7,10-Pentadecadienoic acid]",0.1 µg/10^6 cells,2.6 × 10^4 cells
CCCCCC/C=C\CCCCCCCC(=O)OC(CO)CO [2-Monopalmitolein],0.1 µg/10^6 cells,2.1 × 10^4 cells
CCC=CCCCCCCCC(=O)OCC(O)CO (stereo not drawn) [1-Monododecenoin],4.2 µg/10^6 cells,2.7 × 10^4 cells
CC=CCCCCC(=O)OCC(O)CO (stereo not drawn) [1-Monooctenoin],4.5 µg/10^6 cells,2.6 × 10^4 cells
"CCCCCC/C=C\CCCCCCCC(=O)OCC(O)COC(=O)CCCCCCC/C=C\CCCCCC [1,3-Dipalmitolein]",0.1 µg/10^6 cells,2.1 × 10^4 cells
CCCCC=CCCCCCCCCC(=O)O [10-Pentadecenoic acid],0.1 µg/10^6 cells,2.6 × 10^4 cells
"CCCCCCC=CCC=CCCCCC(=O)O [6,9-Hexadecadienoic acid]",0.1 µg/10^6 cells,2.4 × 10^4 cells
"CCCC/C=C\CCCCCCCC(=O)OCC(CO)OC(=O)CCCCCCC/C=C\CCCC (stereo not drawn) [1,2-Dimyristolein]",2.8 µg/10^6 cells,2.5 × 10^4 cells
CCCCCCC=CCCCCCCCCC(=O)OCC(O)CO (stereo not drawn) [1-Monoheptadecenoin],0.4 µg/10^6 cells,2.0 × 10^4 cells

Molecule,Melanin levels,Number of cells
"CCC=CCCCCCCCC(=O)OCC(CO)OC(=O)CCCCCCCC=CCC (stereo not drawn) [1,2-Didodecenoin]",4.0 µg/10^6 cells,2.4 × 10^4 cells
"CCCCC=CCCCCCCCCC(=O)OCC(CO)OC(=O)CCCCCCCCC=CCCCC (stereo not drawn) [1,2-Dipentadecenoin]",0.1 µg/10^6 cells,2.5 × 10^4 cells
CCCCCC/C=C\CCCCCCCC(=O)OCC(COC(=O)CCCCCCC/C=C\CCCCCC)OC(=O)CCCCCCC/C=C\CCCCCC [Tripalmitolein],0.1 µg/10^6 cells,2.1 × 10^4 cells
"CCCCC=CCCCCCCCCC(=O)OCC(O)COC(=O)CCCCCCCCC=CCCCC (stereo not drawn) [1,3-Dipentadecenoin]",0.2 µg/10^6 cells,2.1 × 10^4 cells
CCCCCC/C=C\CCCCCCCC(=O)OCC(O)CO (stereo not drawn) [1-Monopalmitolein],0.1 µg/10^6 cells,2.2 × 10^4 cells
CCCC=CCCCCCC(=O)O [7-Undecenoic acid],4.7 µg/10^6 cells,2.7 × 10^4 cells
CCCC=CCCCCCC(=O)OC(CO)CO [2-Monoundecenoin],3.9 µg/10^6 cells,2.5 × 10^4 cells
CCCCCCC=CCCCCCCCCC(=O)OC [10-Heptadecenoic acid methyl],2.0 µg/10^6 cells,2.5 × 10^4 cells
CCCCC=CCCCCCCCC(=O)O [9-Tetradecenoic acid],0.3 µg/10^6 cells,2.5 × 10^4 cells
CCCC/C=C\CCCCCCCC(=O)OC [Myristoleic acid methyl],1.2 µg/10^6 cells,2.6 × 10^4 cells
CCC=CCCCCCCCCC(=O)O [10-Tridecenoic acid],3.0 µg/10^6 cells,2.7 × 10^4 cells
CCCC=CCCCCC(=O)O [6-Decenoic acid],4.8 µg/10^6 cells,2.6 × 10^4 cells
CCCCCCC=CCCCCCCCCC(=O)O [10-Heptadecenoic acid],0.5 µg/10^6 cells,2.6 × 10^4 cells
CC=CCCCCC(=O)O [6-Octenoic acid],4.7 µg/10^6 cells,2.6 × 10^4 cells
CCCCCC/C=C\CCCCCCCC(=O)OC [Palmitoleic acid methyl],0.1 µg/10^6 cells,2.6 × 10^4 cells
"CCCCCC/C=C\CCCCCCCC(=O)OCC(CO)OC(=O)CCCCCCC/C=C\CCCCCC (stereo not drawn) [1,2-Dipalmitolein]",0.1 µg/10^6 cells,2.2 × 10^4 cells
"CCCCCCC=CCCCCCCCCC(=O)OCC(O)COC(=O)CCCCCCCCC=CCCCCCC (stereo not drawn) [1,3-Heptadecenoin]",1.2 µg/10^6 cells,2.1 × 10^4 cells
CCCC/C=C\CCCCCCCC(=O)OCC(COC(=O)CCCCCCC/C=C\CCCC)OC(=O)CCCCCCC/C=C\CCCC [Trimyristolein],1.5 µg/10^6 cells,2.5 × 10^4 cells
"CCCCC=CCC=CCCCCC(=O)O [6,9-Tetradecadienoic acid]",0.3 µg/10^6 cells,2.5 × 10^4 cells
CCCCCCC=CCCCCCCCCC(=O)OC(CO)CO [2-Monoheptadecenoin],0.3 µg/10^6 cells,2.2 × 10^4 cells
"CCCC/C=C\CCCCCCCC(=O)OCC(O)COC(=O)CCCCCCC/C=C\CCCC [1,3-Dimyristoelin]",1.2 µg/10^6 cells,2.0 × 10^4 cells
CCCCC=CCCCCCCCCC(=O)OCC(O)CO (stereo not drawn) [1-Monopentadecenoin],0.1 µg/10^6 cells,2.4 × 10^4 cells
